# Results from BindingDB's records for doi:10.1111/cbdd.12142 (Delhi Institute of Pharmaceutical Sciences and Research, 2013).
# Target: Dipeptidyl peptidase 4 (Homo sapiens, UniProt P27487)
# Assay: In vitro DPP IV enzyme inhibition assay
# Details: 37 °C
# Protocol: Following the manufacturer's guidelines, the assay was performed using 96-well flat-bottomed microtitre plate followed by addition of assay buffer, DPP IV enzyme and chromogenic substrate (HGly-Pro-pNA). Test compounds were dissolved in DMSO at different concentrations of 25, 50, 100, 200 µg/mL, and 20 µL were added to each well after further dilutions. The plate was incubated at 37°C for 10 min and read continuously at A-405 nm.
# Sequence of Dipeptidyl peptidase 4 (P27487 whole entry): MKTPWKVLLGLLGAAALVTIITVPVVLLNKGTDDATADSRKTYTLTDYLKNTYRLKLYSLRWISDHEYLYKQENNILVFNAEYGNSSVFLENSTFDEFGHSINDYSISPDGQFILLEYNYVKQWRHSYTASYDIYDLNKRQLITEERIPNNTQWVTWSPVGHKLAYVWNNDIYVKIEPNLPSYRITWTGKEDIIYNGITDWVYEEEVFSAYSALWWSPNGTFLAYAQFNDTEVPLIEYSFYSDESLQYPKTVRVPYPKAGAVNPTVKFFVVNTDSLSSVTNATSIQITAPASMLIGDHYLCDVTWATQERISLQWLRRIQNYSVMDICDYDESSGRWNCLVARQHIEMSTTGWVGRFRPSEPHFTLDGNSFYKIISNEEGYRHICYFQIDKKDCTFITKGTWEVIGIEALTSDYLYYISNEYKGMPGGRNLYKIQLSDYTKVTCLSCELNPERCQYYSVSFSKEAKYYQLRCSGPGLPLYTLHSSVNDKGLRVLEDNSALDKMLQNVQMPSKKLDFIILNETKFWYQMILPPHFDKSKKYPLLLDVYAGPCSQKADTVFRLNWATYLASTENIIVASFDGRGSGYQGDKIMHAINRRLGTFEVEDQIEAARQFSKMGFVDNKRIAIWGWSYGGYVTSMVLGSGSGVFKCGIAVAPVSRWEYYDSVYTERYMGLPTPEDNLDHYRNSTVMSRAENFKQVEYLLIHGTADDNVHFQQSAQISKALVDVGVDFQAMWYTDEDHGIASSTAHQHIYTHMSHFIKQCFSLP
row,SMILES,IC50 [µM]
1,O=C(CN1CCCC1C(=O)N1CCC(F)C1)N1CCCCCC1 (centres undefined) [1‐(azepan‐1‐yl)‐2‐[2‐(3‐fluoropyrrolidine‐1‐ carbonyl)pyrrolidin‐1‐yl]ethan‐1‐one],3.47
2,O=C(C1CCCN1CCN1CCCCC1)N1CCC(F)C1 (centres undefined) [1‐{2‐[2‐(3‐fluoropyrrolidine‐1‐carbonyl)pyrrolidin‐1‐ yl]ethyl}piperidine],6.49
3,O=C(CN1CCCC1C(=O)N1CCC(F)C1)N1CCCCC1 (centres undefined) [2‐[2‐(3‐fluoropyrrolidine‐1‐carbonyl)pyrrolidin‐1‐ yl]‐1‐(piperidin‐1‐yl)ethan‐1‐one],7.88
4,O=C(CN1CCCC1C(=O)N1CCC(F)C1)N1CCCC1 (centres undefined) [2‐[2‐(3‐fluoropyrrolidine‐1‐carbonyl)pyrrolidin‐1‐ yl]‐1‐(pyrrolidin‐1‐yl)ethan‐1‐one],16.7
5,O=C(CN1CCCC1C(=O)N1CCC(F)C1)N1CCN(c2ccccn2)CC1 (centres undefined) [2‐[2‐(3‐fluoropyrrolidine‐1‐carbonyl)pyrrolidin‐1‐ yl]‐1‐[4‐(pyridin‐2‐yl)piperazin‐1‐yl]ethan‐1‐one],0.83

# Second part, the compound after the results:
row,IC50 [µM],SMILES
1,0.43,O=C(CN1CCCC1C(=O)N1CCC(F)C1)N1CCN(c2ncccn2)CC1 (centres undefined) [2‐[2‐(3‐fluoropyrrolidine‐1‐carbonyl)pyrrolidin‐1‐ yl]‐1‐[4‐(pyrimidin‐2‐yl)piperazin‐1‐yl]ethan‐1‐ one]
2,4.27,O=C(C1CCCN1)N1CCC(F)C1 (centres undefined) [3‐fluoro‐1‐(pyrrolidine‐2‐carbonyl)pyrrolidine]
3,23.8,CCN(CC)CCN1CCCC1C(=O)N1CCC(F)C1 (centres undefined) [diethyl({2‐[2‐(3‐fluoropyrrolidine‐1‐ carbonyl)pyrrolidin‐1‐yl]ethyl})amine]
4,30.2,CN(C)CCN1CCCC1C(=O)N1CCC(F)C1 (centres undefined) [{2‐[2‐(3‐fluoropyrrolidine‐1‐carbonyl)pyrrolidin‐1‐ yl]ethyl}dimethylamine]
